Experiment [1] has as its target hNav1.4 (Homo sapiens, UniProt P35499). Briefly: cell-based. It counts as cell-based. Particulars: ratio of PX tonic IC50 values.
The target in experiment [2] is hNav1.5 (Homo sapiens, UniProt Q14524). Briefly: cell-based. Particulars: ratio of PX tonic IC50 values.

The results in this text go back to US10344060B2 (priority 2013, dated 2019).

SMILES strings stand for the structures.

hNav1.5, sequence (Q14524 whole entry): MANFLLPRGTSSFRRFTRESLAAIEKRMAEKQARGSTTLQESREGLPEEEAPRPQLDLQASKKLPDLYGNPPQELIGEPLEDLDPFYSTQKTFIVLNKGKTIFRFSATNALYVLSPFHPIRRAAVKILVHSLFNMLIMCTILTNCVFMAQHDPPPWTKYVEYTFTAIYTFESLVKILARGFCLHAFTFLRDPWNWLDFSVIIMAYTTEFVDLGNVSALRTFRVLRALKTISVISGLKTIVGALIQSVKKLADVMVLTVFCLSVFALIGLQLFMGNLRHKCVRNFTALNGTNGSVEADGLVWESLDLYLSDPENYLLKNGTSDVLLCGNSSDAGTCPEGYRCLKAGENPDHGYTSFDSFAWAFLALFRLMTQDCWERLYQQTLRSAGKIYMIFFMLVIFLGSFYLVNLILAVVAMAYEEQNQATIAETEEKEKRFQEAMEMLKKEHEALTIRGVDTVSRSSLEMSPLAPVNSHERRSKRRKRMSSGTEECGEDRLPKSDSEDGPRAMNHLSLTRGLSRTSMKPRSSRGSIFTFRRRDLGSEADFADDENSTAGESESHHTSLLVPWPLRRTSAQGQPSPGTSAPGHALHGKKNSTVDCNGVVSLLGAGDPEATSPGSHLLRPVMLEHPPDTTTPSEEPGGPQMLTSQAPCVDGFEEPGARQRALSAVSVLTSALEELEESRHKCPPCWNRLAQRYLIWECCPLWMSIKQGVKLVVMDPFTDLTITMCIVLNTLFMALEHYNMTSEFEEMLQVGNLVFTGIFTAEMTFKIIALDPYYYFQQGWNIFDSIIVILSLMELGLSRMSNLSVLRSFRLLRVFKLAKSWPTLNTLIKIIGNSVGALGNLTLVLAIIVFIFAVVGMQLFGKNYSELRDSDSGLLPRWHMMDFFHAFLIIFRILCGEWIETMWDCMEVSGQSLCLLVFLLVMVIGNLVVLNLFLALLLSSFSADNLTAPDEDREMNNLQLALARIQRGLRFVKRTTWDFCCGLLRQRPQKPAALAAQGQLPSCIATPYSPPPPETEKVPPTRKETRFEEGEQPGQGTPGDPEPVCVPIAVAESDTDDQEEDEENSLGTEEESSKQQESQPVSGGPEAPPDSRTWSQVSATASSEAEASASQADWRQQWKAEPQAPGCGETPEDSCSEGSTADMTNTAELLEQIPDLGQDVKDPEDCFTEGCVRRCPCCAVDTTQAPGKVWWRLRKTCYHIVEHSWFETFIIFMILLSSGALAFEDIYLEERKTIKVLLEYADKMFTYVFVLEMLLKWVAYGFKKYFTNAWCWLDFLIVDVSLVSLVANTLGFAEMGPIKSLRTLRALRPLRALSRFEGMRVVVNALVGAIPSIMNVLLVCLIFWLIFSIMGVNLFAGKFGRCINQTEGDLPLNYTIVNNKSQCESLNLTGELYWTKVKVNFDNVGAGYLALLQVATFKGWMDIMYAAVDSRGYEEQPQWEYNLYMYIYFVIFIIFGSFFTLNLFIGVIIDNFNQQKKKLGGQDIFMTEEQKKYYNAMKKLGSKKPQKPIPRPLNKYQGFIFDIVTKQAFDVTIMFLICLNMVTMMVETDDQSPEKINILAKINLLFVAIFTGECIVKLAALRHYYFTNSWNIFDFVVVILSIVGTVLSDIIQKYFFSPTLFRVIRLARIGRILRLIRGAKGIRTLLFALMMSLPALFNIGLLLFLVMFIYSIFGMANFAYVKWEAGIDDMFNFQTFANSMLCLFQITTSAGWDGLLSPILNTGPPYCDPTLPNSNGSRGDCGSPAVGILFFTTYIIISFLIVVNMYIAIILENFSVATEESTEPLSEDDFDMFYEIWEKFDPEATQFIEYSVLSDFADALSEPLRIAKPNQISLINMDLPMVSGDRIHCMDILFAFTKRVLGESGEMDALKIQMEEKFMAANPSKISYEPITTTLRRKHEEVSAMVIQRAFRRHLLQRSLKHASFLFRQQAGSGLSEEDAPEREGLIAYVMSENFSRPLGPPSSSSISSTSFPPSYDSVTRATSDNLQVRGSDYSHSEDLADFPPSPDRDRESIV
hNav1.4, sequence (P35499 whole entry): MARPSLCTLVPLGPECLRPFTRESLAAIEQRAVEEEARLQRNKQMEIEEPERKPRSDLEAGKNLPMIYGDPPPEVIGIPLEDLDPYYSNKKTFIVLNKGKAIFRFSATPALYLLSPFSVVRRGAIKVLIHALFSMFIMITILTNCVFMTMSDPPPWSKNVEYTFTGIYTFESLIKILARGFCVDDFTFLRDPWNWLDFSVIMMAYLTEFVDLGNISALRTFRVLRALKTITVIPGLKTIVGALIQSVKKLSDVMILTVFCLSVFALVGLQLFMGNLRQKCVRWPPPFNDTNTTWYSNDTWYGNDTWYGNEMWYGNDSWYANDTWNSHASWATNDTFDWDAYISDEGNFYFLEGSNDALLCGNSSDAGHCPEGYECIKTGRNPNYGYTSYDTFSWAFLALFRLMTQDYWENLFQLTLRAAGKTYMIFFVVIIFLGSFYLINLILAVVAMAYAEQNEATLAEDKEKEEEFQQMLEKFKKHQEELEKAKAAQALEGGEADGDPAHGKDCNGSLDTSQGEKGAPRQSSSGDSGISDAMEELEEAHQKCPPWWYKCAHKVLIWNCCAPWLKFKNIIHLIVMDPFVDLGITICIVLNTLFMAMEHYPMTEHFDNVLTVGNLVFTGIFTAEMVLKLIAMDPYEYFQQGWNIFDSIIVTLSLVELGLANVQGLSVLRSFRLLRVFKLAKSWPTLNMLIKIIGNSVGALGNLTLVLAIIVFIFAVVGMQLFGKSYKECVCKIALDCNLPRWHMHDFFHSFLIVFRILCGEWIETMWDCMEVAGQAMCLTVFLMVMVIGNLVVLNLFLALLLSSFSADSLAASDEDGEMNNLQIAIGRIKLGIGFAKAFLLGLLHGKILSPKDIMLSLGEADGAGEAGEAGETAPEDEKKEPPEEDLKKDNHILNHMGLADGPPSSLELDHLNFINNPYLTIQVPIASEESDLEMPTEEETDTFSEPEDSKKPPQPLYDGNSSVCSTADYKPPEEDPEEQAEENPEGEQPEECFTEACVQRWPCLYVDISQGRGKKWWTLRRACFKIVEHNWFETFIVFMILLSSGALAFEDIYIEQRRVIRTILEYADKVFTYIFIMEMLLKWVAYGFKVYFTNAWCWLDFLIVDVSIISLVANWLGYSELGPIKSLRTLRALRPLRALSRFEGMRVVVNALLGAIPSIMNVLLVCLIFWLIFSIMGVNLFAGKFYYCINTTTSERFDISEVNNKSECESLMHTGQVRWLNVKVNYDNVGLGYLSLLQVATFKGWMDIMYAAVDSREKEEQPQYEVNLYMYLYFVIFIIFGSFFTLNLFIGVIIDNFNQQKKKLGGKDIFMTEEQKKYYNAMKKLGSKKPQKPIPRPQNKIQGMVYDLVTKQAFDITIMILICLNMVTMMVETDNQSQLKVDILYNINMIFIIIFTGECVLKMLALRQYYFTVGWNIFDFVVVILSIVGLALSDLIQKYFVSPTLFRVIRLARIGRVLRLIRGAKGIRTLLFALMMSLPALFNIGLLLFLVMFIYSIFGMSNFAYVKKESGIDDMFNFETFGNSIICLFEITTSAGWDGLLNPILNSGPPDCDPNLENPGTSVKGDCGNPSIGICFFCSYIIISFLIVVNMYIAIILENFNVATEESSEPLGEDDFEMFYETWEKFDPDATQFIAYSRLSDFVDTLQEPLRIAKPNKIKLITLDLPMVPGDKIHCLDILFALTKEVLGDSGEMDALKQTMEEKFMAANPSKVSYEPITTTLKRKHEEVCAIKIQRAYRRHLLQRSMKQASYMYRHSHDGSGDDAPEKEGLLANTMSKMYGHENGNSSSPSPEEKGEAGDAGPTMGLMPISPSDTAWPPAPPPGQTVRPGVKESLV

Consider `C#CC[C@@H]1NC(=O)[C@H](CC(=O)O)NC(=O)[C@@H]2CSSC[C@@H]3NC(=O)[C@H](CCCNC(=N)N)NC(=O)[C@H](CC(C)C)NC(=O)CNC(=O)[C@H](CCC(=O)O)NC(=O)[C@H](CSSC[C@H](NC(=O)[C@@H](N)Cc4ccc(O)cc4)C(=O)N[C@@H](CCC(N)=O)C(=O)N[C@@H](CCCCN)C(=O)N[C@@H](Cc4c[nH]c5ccccc45)C(=O)N[C@@H](CCCC)C(=O)N[C@@H](Cc4c[nH]c5ccccc45)C(=O)N[C@@H]([C@@H](C)O)C(=O)N2)NC(=O)[C@H](CSSC[C@@H](C(=O)N[C@@H](CCCNC(=N)N)C(=O)N[C@@H](CCCCN)C(=O)N[C@@H](CCC(=O)O)C(=O)N[C@H](C(N)=O)[C@@H](C)CC)NC(=O)[C@H](Cc2c[nH]c4ccccc24)NC(=O)[C@H](CC(C)C)NC(=O)[C@H](CCCCN)NC3=O)NC(=O)[C@H](C)NC(=O)[C@H](CCCNC(=N)N)NC(=O)[C@H](CCCCN)NC1=O` [compound 330], for which the Nav1.4/Nav1.7 in experiment [1] (Table 12) is 291. For the same compound, in experiment [2] (Table 12), the Nav1.5/Nav1.7 stood at 7841.

In the case of `C#CC[C@@H]1NC(=O)[C@H](CC(=O)O)NC(=O)[C@@H]2CSSC[C@@H]3NC(=O)[C@H](CCC(=O)O)NC(=O)[C@H](CC(C)C)NC(=O)CNC(=O)[C@H](CCC(=O)O)NC(=O)[C@H](CSSC[C@H](NC(=O)[C@@H](N)Cc4ccc(O)cc4)C(=O)N[C@@H](CCC(N)=O)C(=O)N[C@@H](CCCCN)C(=O)N[C@@H](Cc4c[nH]c5ccccc45)C(=O)N[C@@H](CCCC)C(=O)N[C@@H](Cc4c[nH]c5ccccc45)C(=O)N[C@@H]([C@@H](C)O)C(=O)N2)NC(=O)[C@H](CSSC[C@@H](C(=O)N[C@@H](CCCNC(=N)N)C(=O)N[C@@H](CCCCN)C(=O)N[C@H](C(=O)N[C@H](C(N)=O)[C@@H](C)CC)[C@@H](C)CC)NC(=O)[C@H](Cc2c[nH]c4ccccc24)NC(=O)[C@H](CC(C)C)NC(=O)[C@H](CCCCN)NC3=O)NC(=O)[C@H](C)NC(=O)[C@H](CCCNC(=N)N)NC(=O)[C@H](CCCCN)NC1=O` [compound 344], the Nav1.4/Nav1.7 in experiment [1] (Table 12) turned out to be 230. In experiment [2] (Table 12), the Nav1.5/Nav1.7 is on record as 193.

As to `C#CC[C@H](N)C(=O)NCCOCCOCCOCCOCCC(=O)NCCCC[C@@H]1NC(=O)[C@@H]2CSSC[C@H](NC(=O)[C@@H](N)Cc3ccc(O)cc3)C(=O)N[C@@H](CCC(N)=O)C(=O)N[C@@H](CCCCN)C(=O)N[C@@H](Cc3c[nH]c4ccccc34)C(=O)N[C@@H](CCCC)C(=O)N[C@@H](Cc3c[nH]c4ccccc34)C(=O)N[C@@H]([C@@H](C)O)C(=O)N[C@H]3CSSC[C@H](NC(=O)[C@H](CCC(=O)O)NC(=O)[C@H](CC(C)C)NC(=O)CNC1=O)C(=O)N[C@@H](CCCCN)C(=O)N[C@@H](CC(C)C)C(=O)N[C@@H](Cc1c[nH]c4ccccc14)C(=O)N[C@H](C(=O)N[C@@H](CCCNC(=N)N)C(=O)N[C@@H](CCCCN)C(=O)N[C@H](C(=O)N[C@@H](Cc1c[nH]c4ccccc14)C(N)=O)[C@@H](C)CC)CSSC[C@H](NC(=O)[C@H](C)NC(=O)[C@H](CCCNC(=N)N)NC(=O)[C@H](CCCCN)NC(=O)[C@H](CO)NC(=O)[C@H](CC(=O)O)NC3=O)C(=O)N2` [compound 293], the Nav1.4/Nav1.7 in experiment [1] (Table 12) was found to be 1. For the same compound, the Nav1.5/Nav1.7 in experiment [2] (Table 12) was determined as 1.

As to `CCCC[C@@H]1NC(=O)[C@H](Cc2c[nH]c3ccccc23)NC(=O)[C@H](CCCCN)NC(=O)[C@H](CCC(N)=O)NC(=O)[C@@H](NC(=O)[C@@H](N)CCN=[N+]=[N-])CSSC[C@@H]2NC(=O)[C@@H]3CSSC[C@@H](C(=O)N[C@@H](CCCNC(=N)N)C(=O)N[C@@H](CCCCN)C(=O)N[C@H](C(=O)N[C@@H](Cc4c[nH]c5ccccc45)C(N)=O)[C@@H](C)CC)NC(=O)[C@H](Cc4c[nH]c5ccccc45)NC(=O)[C@H](CC(C)C)NC(=O)[C@H](CCCCN)NC(=O)[C@H](CSSC[C@H](NC(=O)[C@H]([C@@H](C)O)NC(=O)[C@H](Cc4c[nH]c5ccccc45)NC1=O)C(=O)N[C@@H](CC(=O)O)C(=O)N[C@@H](CO)C(=O)N[C@@H](CCCCN)C(=O)N[C@@H](CCCNC(=N)N)C(=O)N[C@@H](C)C(=O)N3)NC(=O)[C@H](CCC(=O)O)NC(=O)[C@H](CC(C)C)NC(=O)CNC(=O)[C@H](CCC(=O)O)NC2=O` [compound 309], the Nav1.4/Nav1.7 in experiment [1] (Table 12) worked out at 239. The Nav1.5/Nav1.7 in experiment [2] (Table 12) stood at 634.

Regarding `CCCC[C@@H]1NC(=O)[C@H](Cc2c[nH]c3ccccc23)NC(=O)[C@H](CCCCN)NC(=O)[C@H](CCC(N)=O)NC(=O)[C@@H](NC(=O)[C@@H](N)CCCCN=[N+]=[N-])CSSC[C@@H]2NC(=O)[C@@H]3CSSC[C@@H](C(=O)N[C@@H](CCCNC(=N)N)C(=O)N[C@@H](CCCCN)C(=O)N[C@H](C(=O)N[C@@H](Cc4c[nH]c5ccccc45)C(N)=O)[C@@H](C)CC)NC(=O)[C@H](Cc4c[nH]c5ccccc45)NC(=O)[C@H](CC(C)C)NC(=O)[C@H](CCCCN)NC(=O)[C@H](CSSC[C@H](NC(=O)[C@H]([C@@H](C)O)NC(=O)[C@H](Cc4c[nH]c5ccccc45)NC1=O)C(=O)N[C@@H](CC(=O)O)C(=O)N[C@@H](CO)C(=O)N[C@@H](CCCCN)C(=O)N[C@@H](CCCNC(=N)N)C(=O)N[C@@H](C)C(=O)N3)NC(=O)[C@H](CCC(=O)O)NC(=O)[C@H](CC(C)C)NC(=O)CNC(=O)[C@H](CCC(=O)O)NC2=O` [compound 304], the Nav1.4/Nav1.7 in experiment [1] (Table 12) came out at 449. Moreover, the Nav1.5/Nav1.7 in experiment [2] (Table 12) worked out at 662.

`C#CC[C@H](N)C(=O)NCCOCCOCCOCCOCCOCCOCCOCCOCCOCCOCCOCCOCCC(=O)NCCCC[C@@H]1NC(=O)[C@H](CCCNC(=N)N)NC(=O)[C@H](CCCCN)NC(=O)[C@H](CO)NC(=O)[C@H](CC(=O)O)NC(=O)[C@@H]2CSSC[C@@H]3NC(=O)[C@H](CCC(=O)O)NC(=O)[C@H](CC(C)C)NC(=O)CNC(=O)[C@H](CCC(=O)O)NC(=O)[C@H](CSSC[C@H](NC(=O)[C@@H](N)Cc4ccc(O)cc4)C(=O)N[C@@H](CCC(N)=O)C(=O)N[C@@H](CCCCN)C(=O)N[C@@H](Cc4c[nH]c5ccccc45)C(=O)N[C@@H](CCCC)C(=O)N[C@@H](Cc4c[nH]c5ccccc45)C(=O)N[C@@H]([C@@H](C)O)C(=O)N2)NC(=O)[C@H](CSSC[C@@H](C(=O)N[C@@H](CCCNC(=N)N)C(=O)N[C@@H](CCCCN)C(=O)N[C@H](C(=O)N[C@@H](Cc2c[nH]c4ccccc24)C(N)=O)[C@@H](C)CC)NC(=O)[C@H](Cc2c[nH]c4ccccc24)NC(=O)[C@H](CC(C)C)NC(=O)[C@H](CCCCN)NC3=O)NC1=O` [compound 290]: the Nav1.4/Nav1.7 in experiment [1] (Table 12) is on record as 5. In addition, the Nav1.5/Nav1.7 in experiment [2] (Table 12) was 12.

As to `C#CC[C@@H]1NC(=O)[C@H](CCCNC(=N)N)NC(=O)[C@H](CCCCN)NC(=O)[C@H](CO)NC(=O)[C@H](CC(=O)O)NC(=O)[C@@H]2CSSC[C@@H]3NC(=O)[C@H](CCC(=O)O)NC(=O)[C@H](CC(C)C)NC(=O)CNC(=O)[C@H](CCC(=O)O)NC(=O)[C@H](CSSC[C@H](NC(=O)[C@@H](N)Cc4ccc(O)cc4)C(=O)N[C@@H](CCC(N)=O)C(=O)N[C@@H](CCCCN)C(=O)N[C@@H](Cc4c[nH]c5ccccc45)C(=O)N[C@@H](CCCC)C(=O)N[C@@H](Cc4c[nH]c5ccccc45)C(=O)N[C@@H]([C@@H](C)O)C(=O)N2)NC(=O)[C@H](CSSC[C@@H](C(=O)N[C@@H](CCCNC(=N)N)C(=O)N[C@@H](CCCCN)C(=O)N[C@@H](Cc2ccc(O)cc2)C(=O)N[C@H](C(N)=O)[C@@H](C)CC)NC(=O)[C@H](Cc2c[nH]c4ccccc24)NC(=O)[C@H](CC(C)C)NC(=O)[C@H](CCCCN)NC3=O)NC1=O` [compound 316], in experiment [1] (Table 12), the Nav1.4/Nav1.7 is given as 402. Moreover, the Nav1.5/Nav1.7 in experiment [2] (Table 12) is reported as 2099.

For the compound `C#CC[C@@H]1NC(=O)[C@H](CCCNC(=N)N)NC(=O)[C@H](CCCCN)NC(=O)[C@H](CO)NC(=O)[C@H](CC(=O)O)NC(=O)[C@@H]2CSSC[C@@H]3NC(=O)[C@H](CCCNC(=N)N)NC(=O)[C@H](CC(C)C)NC(=O)CNC(=O)[C@H](CCC(=O)O)NC(=O)[C@H](CSSC[C@H](NC(=O)[C@@H](N)Cc4ccc(O)cc4)C(=O)N[C@@H](CCC(N)=O)C(=O)N[C@@H](CCCCN)C(=O)N[C@@H](Cc4c[nH]c5ccccc45)C(=O)N[C@@H](CCCC)C(=O)N[C@@H](Cc4c[nH]c5ccccc45)C(=O)N[C@@H]([C@@H](C)O)C(=O)N2)NC(=O)[C@H](CSSC[C@@H](C(=O)N[C@@H](CCCNC(=N)N)C(=O)N[C@@H](CCCCN)C(=O)N[C@@H](CCC(=O)O)C(=O)N[C@H](C(N)=O)[C@@H](C)CC)NC(=O)[C@H](Cc2c[nH]c4ccccc24)NC(=O)[C@H](CC(C)C)NC(=O)[C@H](CCCCN)NC3=O)NC1=O` [compound 331], in experiment [1] (Table 12), the Nav1.4/Nav1.7 turned out to be 213. Besides, the Nav1.5/Nav1.7 in experiment [2] (Table 12) is reported as 7119.

Turning to `C#CC[C@@H]1NC(=O)[C@@H]2CSSC[C@H](NC(=O)[C@@H](N)Cc3ccc(O)cc3)C(=O)N[C@@H](CCC(N)=O)C(=O)N[C@@H](CCCCN)C(=O)N[C@@H](Cc3c[nH]c4ccccc34)C(=O)N[C@@H](CCCC)C(=O)N[C@@H](Cc3c[nH]c4ccccc34)C(=O)N[C@@H]([C@@H](C)O)C(=O)N[C@H]3CSSC[C@H](NC(=O)[C@H](CCCNC(=N)N)NC(=O)[C@H](CC(C)C)NC(=O)CNC1=O)C(=O)N[C@@H](CCCCN)C(=O)N[C@@H](CC(C)C)C(=O)N[C@@H](Cc1c[nH]c4ccccc14)C(=O)N[C@H](C(=O)N[C@@H](CCCNC(=N)N)C(=O)N[C@@H](CCCCN)C(=O)N[C@@H](CCC(=O)O)C(=O)N[C@H](C(N)=O)[C@@H](C)CC)CSSC[C@H](NC(=O)[C@H](C)NC(=O)[C@H](CCCNC(=N)N)NC(=O)[C@H](CCCCN)NC(=O)[C@H](CO)NC(=O)[C@H](CC(=O)O)NC3=O)C(=O)N2` [compound 332], the Nav1.4/Nav1.7 in experiment [1] (Table 12) was determined as 34. For the same compound, the Nav1.5/Nav1.7 in experiment [2] (Table 12) was 849.

On to `CCCC[C@@H]1NC(=O)[C@H](Cc2c[nH]c3ccccc23)NC(=O)[C@H](CCCCN)NC(=O)[C@H](CCC(N)=O)NC(=O)[C@@H](NC(=O)[C@H](Cc2ccc(O)cc2)NC(=O)[C@@H](N)Cc2cn(CCOCCOCCOCCOCCOCCOCCOCCOCCOCCOCCOCCNC(=O)CSCc3ccccc3)nn2)CSSC[C@@H]2NC(=O)[C@@H]3CSSC[C@@H](C(=O)N[C@@H](CCCNC(=N)N)C(=O)N[C@@H](CCCCN)C(=O)N[C@H](C(=O)N[C@H](C(N)=O)[C@@H](C)CC)[C@@H](C)CC)NC(=O)[C@H](Cc4c[nH]c5ccccc45)NC(=O)[C@H](CC(C)C)NC(=O)[C@H](CCCCN)NC(=O)[C@H](CSSC[C@H](NC(=O)[C@H]([C@@H](C)O)NC(=O)[C@H](Cc4c[nH]c5ccccc45)NC1=O)C(=O)N[C@@H](CC(=O)O)C(=O)N[C@@H](CO)C(=O)N[C@@H](CCCCN)C(=O)N[C@@H](CCCNC(=N)N)C(=O)N[C@@H](C)C(=O)N3)NC(=O)[C@H](CCCNC(=N)N)NC(=O)[C@H](CC(C)C)NC(=O)CNC(=O)[C@H](CCC(=O)O)NC2=O` [compound 427], for which, in experiment [1] (Table 13), the Nav1.4/Nav1.7 is 9. Also, in experiment [2] (Table 13), the Nav1.5/Nav1.7 worked out at 1416.
